Reference: patent US20250276993A1, “PSEUDO-DISACCHARIDE COMPOUNDS” (UNIVERSITEIT LEIDEN, priority 2022, published 2025)

Key:
CAG human myeloma cells = assay: CAG myeloma metastasis model; type: in vivo, NOD/SCID mice
Protocol: CAG myeloma—Luciferase-labeled CAG human myeloma cells (3×10^6) were injected into the tail vein of NOD/SCID mice. 3-5 days after cell inoculation, mice were randomly assigned to 4 cohorts (6 mice each) receiving: (a) vehicle, (b) compound 2 (i.p. 300 nmol/day), (c) bortezomib (0.5 mg/kg twice weekly) or (d) 2 plus bortezomib (dosing as for individual compounds). Tumor development was inspected (every 7 days) by IVIS imaging as detailed above. Tumor burden was quantified using Living Image software. Plots and statistical analyses were carried out in Prism 9 (Graphpad software).

HPSE [1] = biological target: T1, HPSE (Homo sapiens, UniProt Q9Y251); assay: Fondaparinux cleavage assay; type: biochemical
T1 sequence (Q9Y251 36-109 limits assumed): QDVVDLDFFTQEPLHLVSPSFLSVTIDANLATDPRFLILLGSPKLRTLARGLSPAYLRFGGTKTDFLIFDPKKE
T1 sequence (Q9Y251 158-543 limits assumed): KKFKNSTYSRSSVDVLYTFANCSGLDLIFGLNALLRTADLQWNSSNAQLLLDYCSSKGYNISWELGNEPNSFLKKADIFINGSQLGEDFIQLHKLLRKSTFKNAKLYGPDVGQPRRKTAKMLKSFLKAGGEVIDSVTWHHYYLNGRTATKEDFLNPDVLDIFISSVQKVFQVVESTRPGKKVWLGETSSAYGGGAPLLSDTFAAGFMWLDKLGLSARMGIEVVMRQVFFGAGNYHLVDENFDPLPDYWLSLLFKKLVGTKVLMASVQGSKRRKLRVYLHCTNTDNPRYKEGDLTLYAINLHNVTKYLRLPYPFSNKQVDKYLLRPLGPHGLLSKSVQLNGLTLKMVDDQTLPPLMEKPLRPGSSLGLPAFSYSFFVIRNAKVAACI

HPSE [2] = biological target: T1, HPSE; assay: HSPG digest assay, recombinant HPSE; type: biochemical
Protocol: ECM coated 35 mm culture dishes containing ^35S labelled HS were prepared as previously described (Vlodavsky et al., Curr. Protoc. Cell. Biol., Chapter 10, Unit 10, 14). Briefly, bovine corneal endothelial cells were plated at an initial density of 2×10^5 cells/ml, with 4% dextran T-40 (Sigma) included in the growth medium. Na2^35SO4 (25 μCi/ml) was added to the incubation medium on days 2 and 5 after seeding. On day 12, subendothelial ECM is exposed by dissolving the cells with PBS containing 0.5% Triton X-100 and 20 mM NH4OH, followed by four washes with PBS. For HS-degradation assays, ECM coated dishes were incubated with 200 ng recombinant HPSE in 1 mL reaction mixture (10 mM buffer Phosphate-Citrate pH 6.0, 50 mM NaCl, 1 mM DTT, 1 mM CaCl2) containing HPSE inhibitors or DMSO control. Plates were incubated at 37° C. for 5 h, then assay medium collected and applied to a 0.9×30 cm Sepharose 6B size exclusion column. The Sepharose 6B column was eluted with PBS, and ^35S radioactivity of 0.2 mL fractions quantitated using a liquid scintillation analyzer (Packard BioScience). Digest assays with U87 cell lysates were carried out in a similar fashion, except plates were incubated for 18 h with cell extracts prepared from 1×10^6 U87 glioma cells lysed by 3× freeze/thaw cycles.
The compounds of the invention were assessed against HPSE degradation of bona fide HSPGs in a physiologically relevant ECM-like environment. Cultured bovine corneal […] cells secrete a subendothelial basement membrane material rich in HSPGs, and their growth in the presence of ^35SO4^2− results in ^35S radiolabeled HSPGs (Vlodavsky et al., Curr Protoc Cell Biol, Chapter 10, Unit 10, 4, 2001). H^35S chains attached to these HSPGs are detectable after solubilization by HPSE, with enzyme inhibition leading to a corresponding reduction of signal.

GUSB = biological target: T2, GUSB (Homo sapiens, UniProt P08236); assay: cABPP Assay 2, platelet lysates, GUSB; type: biochemical; details: preincubation with inhibitor
T2 construct: Platelet lysates contain complex mixtures of overlapping enzyme activities, including both endo- and exo-β-glucuronidases HPSE and GUSB; endogenous in cells; host or cells: human platelet lysates
T2 sequence (P08236 23-651): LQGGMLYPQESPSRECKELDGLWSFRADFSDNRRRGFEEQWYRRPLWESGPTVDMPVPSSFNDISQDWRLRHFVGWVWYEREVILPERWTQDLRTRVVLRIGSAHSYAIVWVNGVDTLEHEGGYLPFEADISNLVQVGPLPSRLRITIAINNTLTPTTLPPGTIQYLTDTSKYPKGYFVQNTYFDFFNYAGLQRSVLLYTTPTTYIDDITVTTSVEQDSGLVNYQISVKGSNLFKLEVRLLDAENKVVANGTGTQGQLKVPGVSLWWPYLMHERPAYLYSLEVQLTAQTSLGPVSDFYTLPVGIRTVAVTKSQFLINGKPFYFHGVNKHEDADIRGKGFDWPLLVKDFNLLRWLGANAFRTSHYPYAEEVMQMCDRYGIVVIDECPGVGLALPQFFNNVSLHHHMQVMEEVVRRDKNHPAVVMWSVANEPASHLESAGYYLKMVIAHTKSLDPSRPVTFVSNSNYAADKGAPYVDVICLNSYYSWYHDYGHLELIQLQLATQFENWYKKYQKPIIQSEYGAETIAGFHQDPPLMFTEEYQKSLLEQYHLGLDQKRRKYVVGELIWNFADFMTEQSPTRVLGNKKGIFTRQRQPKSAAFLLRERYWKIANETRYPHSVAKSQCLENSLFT
Protocol: For further competitive ABPP studies, a working protein mixture was prepared by mixing the platelet lysates (87.5 μL), buffer (pH 5.0, 150 mM, 157.5 μL) and 3 M NaCl solution (35 μL). The enzymatic reactions were carried out at a constant concentration of read-out 7 (100 nM, final). For each inhibitor 2, 12 and 13, triplicate sets of ten 0.5 mL low protein binding Eppendorf tubes were prepared. Working solutions of each inhibitor (1% DMSO (w/v), 5 μL) in a range of ten concentrations (100, 50, 25, 12.5, 6.3, 3.1, 1.6, 0.8, 0.4, 0 μM) were prepared with MilliQ water and kept on ice. The working protein mixture (8 μL) was added in each protein low binding 0.5 mL Eppendorf tube, and 1 μL of inhibitor solution was added while on ice.
Further cABPP studies were undertaken using platelet lysates to provide a more physiologically realistic environment. Platelet lysates contain complex mixtures of overlapping enzyme activities, including both endo- and exo-β-glucuronidases HPSE and GUSB respectively, thus provide a challenging environment to test inhibitor specificity.

SMILES: CC(=O)NC1C(O)[C@H](O)C(CO)O[C@@H]1O[C@H]1C(O)C(O)[C@@H]2OC2C1C(=O)O (stereo partly drawn) [Compound 2, 4-O-(2-N-acetyl-2-deoxy-D-glucopyranosyl)-glucurono-cyclophellitol]
- metastatic burden (CAG myeloma) (CAG human myeloma cells; 2: i.p. 300 nmol/day, bortezomib 0.5 mg/kg twice weekly, IVIS imaging): marked reduction in metastatic burden
- efficacy at prolonged treatment (CAG myeloma) (CAG human myeloma cells; 33 day timepoint): lower efficacy following prolonged treatment
- fold more potent than reference inhibitors #98 (10) and OGT2115 (11) (HPSE [1]): approximately 2 fold
- inhibition of HPSE degradation of 35S-labelled HSPGs (HPSE [2]; 200 ng recombinant HPSE, pH 6.0, 5 h): robust, dose dependent inhibition
- concentration giving comparable levels of inhibition (HPSE [2]; HSPG digest, recombinant HPSE): 1 µM
- effect on GUS signals (GUSB): without altering GUS signals
